# Laboratory results from the NIST ThermoML archive (doi:10.1016/j.fluid.2004.11.024).
# Several values for one entry are separate records, joined by “and”; a condition that tells them apart may be missing. Equal entries are not always repeated. ± gives the expanded uncertainty stated by the source.
# Settings: Liquid, Transpiration method
compound,measurement,setting,value
Cc1ccc(OCC(C)C)c(Br)c1 [2-bromo-1-isobutoxy-4-methylbenzene],vapor or sublimation pressure,293.2 K,0.0006 ± 3e-05 kPa
same,vapor or sublimation pressure,295.2 K,0.00076 ± 4e-05 kPa
same,vapor or sublimation pressure,298.3 K,0.00103 ± 5e-05 kPa
same,vapor or sublimation pressure,300.2 K,0.0012 ± 6e-05 kPa
same,vapor or sublimation pressure,301.2 K,0.00132 ± 7e-05 kPa
same,vapor or sublimation pressure,303.1 K,0.0016 ± 8e-05 kPa
same,vapor or sublimation pressure,303.8 K,0.00167 ± 9e-05 kPa
same,vapor or sublimation pressure,306.1 K,0.00208 ± 0.00011 kPa
same,vapor or sublimation pressure,306.2 K,0.00213 ± 0.00011 kPa
same,vapor or sublimation pressure,308.2 K,0.00261 ± 0.00014 kPa
same,vapor or sublimation pressure,309.1 K,0.00271 ± 0.00014 kPa
same,vapor or sublimation pressure,311.1 K,0.00328 ± 0.00017 kPa
same,vapor or sublimation pressure,311.2 K,0.00322 ± 0.00017 kPa
same,vapor or sublimation pressure,313.2 K,0.00385 ± 0.00021 kPa
same,vapor or sublimation pressure,316.3 K,0.00506 ± 0.00027 kPa
same,vapor or sublimation pressure,318.2 K,0.00591 ± 0.00031 kPa
same,vapor or sublimation pressure,318.7 K,0.00622 ± 0.00033 kPa
same,vapor or sublimation pressure,321.2 K,0.00746 ± 0.00039 kPa
same,vapor or sublimation pressure,321.3 K,0.00752 ± 0.0004 kPa and 0.00762 ± 0.0004 kPa
same,vapor or sublimation pressure,323.2 K,0.00914 ± 0.00048 kPa and 0.00897 ± 0.00047 kPa and 0.00883 ± 0.00047 kPa
same,vapor or sublimation pressure,326.2 K,0.01113 ± 0.00058 kPa
same,vapor or sublimation pressure,328.2 K,0.01293 ± 0.00067 kPa
CC(C)COc1ccccc1Br [1-bromo-2-isobutoxybenzene],vapor or sublimation pressure,293.3 K,0.00213 ± 0.00011 kPa
same,vapor or sublimation pressure,295.3 K,0.00252 ± 0.00013 kPa
same,vapor or sublimation pressure,298.1 K,0.00325 ± 0.00017 kPa
same,vapor or sublimation pressure,301.2 K,0.00423 ± 0.00022 kPa
same,vapor or sublimation pressure,303.3 K,0.00511 ± 0.00027 kPa
same,vapor or sublimation pressure,306.2 K,0.00634 ± 0.00033 kPa
same,vapor or sublimation pressure,308.3 K,0.00753 ± 0.0004 kPa
same,vapor or sublimation pressure,311.2 K,0.00954 ± 0.0005 kPa
same,vapor or sublimation pressure,313.3 K,0.01119 ± 0.00059 kPa
same,vapor or sublimation pressure,316.3 K,0.01398 ± 0.00073 kPa
same,vapor or sublimation pressure,318.2 K,0.01628 ± 0.00085 kPa
same,vapor or sublimation pressure,321.3 K,0.02031 ± 0.001 kPa
same,vapor or sublimation pressure,323.2 K,0.02325 ± 0.0012 kPa
CC(C)COc1ccc(Br)cc1 [1-bromo-4-isobutoxybenzene],vapor or sublimation pressure,293.2 K,0.00151 ± 8e-05 kPa
same,vapor or sublimation pressure,298.3 K,0.00242 ± 0.00013 kPa
same,vapor or sublimation pressure,301.2 K,0.00304 ± 0.00016 kPa
same,vapor or sublimation pressure,303.2 K,0.00351 ± 0.00019 kPa
same,vapor or sublimation pressure,306.2 K,0.0048 ± 0.00025 kPa
same,vapor or sublimation pressure,308.4 K,0.00538 ± 0.00028 kPa
same,vapor or sublimation pressure,311.3 K,0.00687 ± 0.00036 kPa
same,vapor or sublimation pressure,313.3 K,0.0081 ± 0.00043 kPa
same,vapor or sublimation pressure,316.2 K,0.0101 ± 0.00053 kPa
same,vapor or sublimation pressure,318.3 K,0.01175 ± 0.00062 kPa
same,vapor or sublimation pressure,321.3 K,0.01498 ± 0.00078 kPa
same,vapor or sublimation pressure,323.2 K,0.01699 ± 0.0009 kPa
same,vapor or sublimation pressure,326.3 K,0.0224 ± 0.0012 kPa
same,vapor or sublimation pressure,328.2 K,0.02634 ± 0.0014 kPa
same,vapor or sublimation pressure,331.2 K,0.03352 ± 0.0018 kPa
same,vapor or sublimation pressure,333.2 K,0.0391 ± 0.002 kPa
CC(C)COc1cccc(Br)c1 [1-bromo-3-isobutoxybenzene],vapor or sublimation pressure,290.2 K,0.00145 ± 8e-05 kPa
same,vapor or sublimation pressure,293.3 K,0.00194 ± 0.0001 kPa
same,vapor or sublimation pressure,295.2 K,0.00232 ± 0.00012 kPa
same,vapor or sublimation pressure,298.1 K,0.00301 ± 0.00016 kPa
same,vapor or sublimation pressure,301.1 K,0.00389 ± 0.0002 kPa
same,vapor or sublimation pressure,303.2 K,0.00465 ± 0.00025 kPa
same,vapor or sublimation pressure,306.2 K,0.00607 ± 0.00032 kPa
same,vapor or sublimation pressure,308.1 K,0.00703 ± 0.00037 kPa
same,vapor or sublimation pressure,311.3 K,0.00909 ± 0.00048 kPa
same,vapor or sublimation pressure,313.2 K,0.0106 ± 0.00056 kPa
same,vapor or sublimation pressure,316.1 K,0.01312 ± 0.00069 kPa
same,vapor or sublimation pressure,318.3 K,0.01567 ± 0.00082 kPa
same,vapor or sublimation pressure,321.3 K,0.01929 ± 0.001 kPa
same,vapor or sublimation pressure,323.2 K,0.02231 ± 0.0012 kPa
